Experimental data: the NIST ThermoML archive (doi:10.1021/je060271a)

Settings: 343.15 K, Liquid, Vibrating tube method

CCCCCCCC(=O)OCC(COC(=O)CCCCCCC)(COC(=O)CCCCCCC)COC(=O)CCCCCCC [pentaerythritol tetraoctanoate]
Settings	mass density [kg/m3]
18521 kPa	939.1
18542 kPa	939.2
18560 kPa	939.1
18577 kPa	939.1
18598 kPa	939.1
18616 kPa	939.1
18635 kPa	939.2
18657 kPa	939.2
18673 kPa	939.2
18695 kPa	939.2
18712 kPa	939.1
18730 kPa	939.3
18752 kPa	939.4
18771 kPa	939.4
18789 kPa	939.2
18812 kPa	939.2
18830 kPa	939.2
18848 kPa	939.3
18870 kPa	939.4
18888 kPa	939.3
18907 kPa	939.4
18926 kPa	939.4
18948 kPa	939.4
18967 kPa	939.4
18986 kPa	939.4
19008 kPa	939.4
19027 kPa	939.4
19049 kPa	939.6
19068 kPa	939.5
19087 kPa	939.4
19106 kPa	939.5
19129 kPa	939.5
19148 kPa	939.4
19167 kPa	939.5
19190 kPa	939.6
19210 kPa	939.6
19225 kPa	939.6
19248 kPa	939.6
19271 kPa	939.5
19291 kPa	939.6
19310 kPa	939.7
19334 kPa	939.6
19353 kPa	939.6
19373 kPa	939.6
19396 kPa	939.7
19416 kPa	939.7
19436 kPa	939.7
19456 kPa	939.8
19480 kPa	939.6
19499 kPa	939.7
19519 kPa	939.6
19543 kPa	939.7
19563 kPa	939.8
19587 kPa	939.8
19608 kPa	939.8
19627 kPa	939.7
19647 kPa	939.8
19671 kPa	939.9
19691 kPa	939.7
19712 kPa	939.8
19736 kPa	939.8
19756 kPa	939.8
19780 kPa	939.9
19801 kPa	940.1
19821 kPa	940.1
19841 kPa	939.9
19866 kPa	940
19887 kPa	940
19907 kPa	940
19932 kPa	940
19952 kPa	940.1
19977 kPa	940
19999 kPa	940
20019 kPa	940
20040 kPa	940.1
20065 kPa	940
20108 kPa	940.1
20155 kPa	940.1
20180 kPa	940.2
20201 kPa	940.2
20223 kPa	940.1
20245 kPa	940.2
20271 kPa	940.1
20295 kPa	940.1
20316 kPa	940.3
20338 kPa	940.2
20364 kPa	940.2
20386 kPa	940.3
20408 kPa	940.3
20434 kPa	940.3
20527 kPa	940.5
20550 kPa	940.3
20577 kPa	940.3
20596 kPa	940.4
20622 kPa	940.5
20645 kPa	940.4
20667 kPa	940.5
20690 kPa	940.5
20708 kPa	940.5
20731 kPa	940.6
20753 kPa	940.5
20790 kPa	940.5
20813 kPa	940.5
20836 kPa	940.5
20864 kPa	940.6
20887 kPa	940.6
20910 kPa	940.5
20938 kPa	940.7
20961 kPa	940.6
20984 kPa	940.8
21008 kPa	940.5
21036 kPa	940.7
21059 kPa	940.8
21087 kPa	940.8
21110 kPa	940.8
21134 kPa	940.7
21162 kPa	940.8
21185 kPa	940.8
21215 kPa	940.8
21239 kPa	940.8
21262 kPa	940.9
21286 kPa	940.9
21315 kPa	940.9
21339 kPa	940.9
21363 kPa	940.9
21392 kPa	941
21416 kPa	941
21440 kPa	941
21469 kPa	940.9
21494 kPa	941.1
21518 kPa	941.1
21548 kPa	941
21573 kPa	941.1
21597 kPa	941.1
21622 kPa	941.1
21652 kPa	941.1
21677 kPa	941.1
21702 kPa	941.2
21732 kPa	941.3
21757 kPa	941.3
21782 kPa	941.2
21812 kPa	941.2
21837 kPa	941.1
21863 kPa	941.2
21890 kPa	941.1
21920 kPa	941.2
21946 kPa	941.3
21977 kPa	941.3
